# Details: not given
SMILES,melting point [°C],boiling point [°C],ready biodegradability,log10 Koa,log10 vapour pressure (mmHg),log10 Koc (L/kg),log10 Henry constant (atm·m³/mol)
O=[N+]([O-])c1cc(C(F)(F)F)cc([N+](=O)[O-])c1Cl,57,–,–,–,–,–,–
FC(F)(F)C(Cl)=C(Cl)Cl,–,88.1,–,–,–,–,–
O=C(O)/C=C(/Br)C(=O)O,163,–,–,–,–,–,–
O[C@H]1C=CCCC1,–,164,–,–,–,–,–
COC(N)=O,54,177,–,–,–,–,–
NC(=O)C(CCN1CCCCCC1)(c1ccccc1)c1ccccc1,142,–,–,–,–,–,–
Cc1ccno1,–,122,–,–,–,–,–
CCCCCCOC(=O)CCCCC,-55,246,–,–,–,–,–
CCCCCCCCCCCCOC(=O)c1ccc(N)cc1,82,–,–,–,–,–,–
Ic1cccc2ccccc12,4.2,302,readily biodegradable,–,–,–,–
Cc1cc(C)c(C=O)c(C)c1,14,238,–,–,–,–,–
CC(C)CCCN,-94.4,125,–,–,–,–,–
CCCCl,-123,46.5,–,2.24,2.54,–,–
Nc1c(Cl)cc([N+](=O)[O-])cc1Cl,191,–,not readily biodegradable,–,-5.92,3,–
C[C@@H]1C[C@H](C)CC(C)(C)C1,–,152,–,–,–,–,–
C#CCBr,–,89,–,–,–,–,-2.95
Clc1cccc2cc3ccccc3cc12,83.5,–,–,–,–,–,–
O=Cc1cccc(O)c1O,108,235,–,–,–,–,–
NCCCCN,27.5,158,–,–,–,–,–
C=CCc1ccccc1OCC(O)CNC(C)C (stereo unspecified),108,–,–,–,–,–,–

SMILES,melting point [°C],boiling point [°C],ready biodegradability,log10 Koa,log10 vapour pressure (mmHg),log10 Koc (L/kg),log10 Henry constant (atm·m³/mol)
CC(=O)Nc1ccccc1,114,304,readily biodegradable,–,-3.7,1.43,–
Clc1cccc(Cl)c1,-24.8,173,not readily biodegradable,4.12,0.332,2.58,-2.58
CCCCCC(O)(CC)CC,–,199,–,–,–,–,–
Cc1cc2c(cc1C)C(=O)c1ccccc1C2=O,211,–,–,–,–,–,–
CC(C)COC(=O)Cc1ccccc1,–,247,–,–,–,–,–
CCCCOC,-116,70.1,–,–,2.14,–,–
CC1CCCC(=O)C1 (stereo unspecified),–,170,–,–,0.176,–,–
CCCCCCCCCCCCCCCCCCOC(=O)CCc1cc(C(C)(C)C)c(O)c(C(C)(C)C)c1,–,–,not readily biodegradable,–,–,–,–
N#Cc1ccccc1C#N,140,–,not readily biodegradable,–,–,–,–
COc1cc(CCC(C)=O)ccc1O,40.5,–,–,–,–,–,–
O=C1c2ccccc2C(=O)c2c1cc(O)c(O)c2O,313,–,–,–,–,–,–
Nc1ccc(S(=O)(=O)NC(=O)c2ccccc2)cc1,182,–,–,–,–,–,–
Cc1cc(C)nc(NC(=O)NS(=O)(=O)c2ccccc2C(=O)O)n1,–,–,–,–,–,1.8,–
CCCCCCCCCCCCOC(=O)c1cc(O)c(O)c(O)c1,96.5,–,–,–,–,–,–
C#CC(OC(=O)C1C(C=C(C)C)C1(C)C)/C(C)=C/CC (stereo unspecified),–,296,–,–,-3.98,–,–
O=C(O)C1CCCCCC1,–,259,–,–,–,–,–
Clc1cc(Cl)c2c(Cl)ccc(Cl)c2c1,–,–,–,8.28,–,–,–
CCOC(=O)CC(C(C)=O)C(=O)OCC (stereo unspecified),–,255,–,–,–,–,–
Cl[Si](Cl)(Cl)c1ccccc1,–,201,–,–,-0.371,–,–
C=C(Br)CC1(C(C)C)C(=O)NC(=O)NC1=O,181,–,–,–,–,–,–

SMILES,melting point [°C],boiling point [°C],ready biodegradability,log10 Koa,log10 vapour pressure (mmHg),log10 Koc (L/kg),log10 Henry constant (atm·m³/mol)
FC(F)(F)C(F)(F)C(F)(F)C(F)(F)C(F)(F)C(F)(F)C(F)(F)C(F)(F)C(F)(F)Br,–,159,–,–,–,–,–
Cc1cc(C)cc(OP(=O)(Oc2cc(C)cc(C)c2)Oc2cc(C)cc(C)c2)c1,–,–,not readily biodegradable,–,–,–,–
O=C(O)/C=C/c1ccc(Cl)cc1Cl,234,–,–,–,–,–,–
CC1CCCS1 (stereo unspecified),-101,134,–,–,–,–,–
CCCCOC(=O)C(Cl)(Cl)Cl,–,204,–,–,–,–,–
Fc1cc(F)c(F)c(F)c1,-48,84.4,–,–,1.86,–,–
CC(=O)OCC(=O)[C@H]1CC[C@H]2[C@@H]3CC=C4C[C@@H](O)CC[C@]4(C)[C@H]3CC[C@]12C,184,–,–,–,–,–,–
CC(=O)CC(=O)OC(C)C,-27.3,186,–,–,–,–,–
CC1(O)CCCC1,36,136,–,–,–,–,–
CC(=O)C(C)=O,-1.2,88,–,–,1.75,–,-4.88
CC(C)CCCCC(C)C,-54.9,160,–,–,–,–,–
CCOC(=O)C(C)(C)O,–,150,–,–,–,–,–
CCCN(CCC)C(=O)SCC,–,–,–,–,-1.62,2.38,–
CCCCCCCCCCCCCC(=O)OC(=O)CCCCCCCCCCCCC,53.4,–,–,–,–,–,–
Cc1ccc(O)c(I)c1,35,–,–,–,–,–,–
ClCCCCl,-99.5,121,–,–,1.26,–,-3.01
Cc1cccc2sc3nncn3c12,187,275,–,–,-6.7,3.09,–
CCCCCCCCCCBr,-29.2,241,–,–,-1.4,–,–
COc1cc(Cl)ccc1O,16.5,241,–,–,–,–,–
C1CC[C@@H]2NCCC[C@@H]2C1,-40,206,–,–,–,–,–

# Same assay, conditions: fish
SMILES,log10 BCF,log10 biotransformation half-life (days)
CC(C)C1=CC2=CC[C@@H]3[C@](C)(CCC[C@@]3(C)C(=O)O)[C@H]2CC1,1.97,–
Clc1cccc(Cl)c1,2.33,-0.21
N#Cc1ccccc1C#N,0.7,-0.67
